From ChEMBL document CHEMBL1144096, “New phenanthrene derivatives from maxillaria densa(1)” (J Nat Prod, 1999)

Tested on: Ileum
Assay: Inhibition of rat ileum contraction
Type: functional, tissue-based

COc1ccc(Cc2nccc3cc(OC)c(OC)cc23)cc1OC [PAPAVERINE]
IC50: 1550 nM
